What was measured:
[1] = test system: HUVEC cells; test: EF-induced elongation of endothelial cells (long:short axis ratio); assay type: cell-based, human; settings: for long:short axis ratio in EF-treated cells: inhibitor 50 μM, vs control
Protocol: Tissue culture reagents were obtained from Life Technologies UK. […] Rhodamine-phalloidin (E3478) was obtained from Molecular Probes (Leiden, The Netherlands) and anti-tubulin conjugated with FITC was obtained from Sigma. The HUVEC cell line from ATCC was used prior to passage 10. Dulbecco's modified Eagle's medium (DMEM) with 10% fetal bovine serum (FBS) was used for culture cells and EF exposure experiments.
HUVEC cells were seeded in a trough formed by two parallel (1 cm apart) strips of glass coverslip (No. 1, length of 22 mm) fixed to the base of the dish with silicone grease. Scratch lines were made perpendicular to the long axis of the chamber with a fine sterile needle and used as reference marks for directed cell migration. Cells were incubated for 24-48 hours (37° C., 5% CO2) before a roof coverslip was applied and sealed with silicone grease. The final dimensions of the chamber, through which current was passed, were 22×10×0.2 mm. Agar-salt bridges not less than 15 cm long were used to connect silver/silver-chloride electrodes in beakers of Steinberg's solution (58 mM NaCl, 0.67 mM KCl, 0.44 mM Ca(NO3)2, 1.3 mM MgSO4, 4.6 mM Trizma base, pH 7.8-8.0), to pools of excess culture medium at either side of the chamber. Field strengths were measured directly at the beginning of, the end of and during each experiment. No fluctuations in field strength were observed. […] (50 μM), the Rho kinase inhibitor Y27632 (50 μM), both Akt and Rho kinase inhibitors (10 μM each) or latrunculin (50 nM) for 1 hour before EF stimulation. […]
A series of images was taken with an image analyser immediately before EF exposure and at 4, 8 and 24 hours of EF exposure. Cell orientation was quantified as an orientation index (Oi), which is defined as Oi=cos2(α), where α is the angle formed by the long axis of a cell with a line drawn perpendicular to the field lines. […] The significance of this two-dimensional orientation distribution against randomness was calculated using Rayleigh's distribution. A long:short axis ratio was calculated for assessment of elongation.

[2] = test system: Human keratinocytes; test: in vitro scratch assay (cell migration); assay type: cell-based
Excerpt: The in vitro scratch assay is an easy, low-cost and well-developed method to measure cell migration in vitro. The basic steps involve creating a “scratch” in a cell monolayer, capturing images at the beginning and at regular intervals during cell migration to close the scratch, and comparing the images to quantify the migration rate of the cells. Compared to other methods, the in vitro scratch assay is particularly suitable for studies on the effects of cell-matrix and cell-cell interactions on cell migration, mimic cell migration during wound healing in vivo and are compatible with imaging of live cells during migration to monitor intracellular events if desired. In addition to monitoring migration of homogenous cell populations, this method has also been adopted to measure migration of individual cells in the leading edge of the scratch.
Human keratinocytes were plated under plated under placebo or a LLEC system described herein (labeled “PROCELLERA®”). Cells were also plated under silver-only or zinc-only dressings. After 24 hours, the scratch assay was performed.
Cell culture—Immortalized HaCaT human keratinocytes were grown in Dulbecco's low-glucose modified Eagle's medium (Life Technologies, Gaithersburg, Md., U.S.A.) supplemented with 10% fetal bovine serum, 100 U/ml penicillin, and 100 μg/ml streptomycin. The cells were maintained in a standard culture incubator with humidified air containing 5% CO2 at 37° C.
Scratch assay—A cell migration assay was performed using culture inserts (IBIDI®, Verona, Wis.) according to the manufacturer's instructions. Cell migration was measured using time-lapse phase-contrast microscopy following withdrawal of the insert. Images were analyzed using the AxioVision Rel 4.8 software.
N-Acetyl Cysteine Treatment—Cells were pretreated with 5 mM of the thiol antioxidant N-acetylcysteine (Sigma) for 1 h before start of the scratch assay.
IGF-1 R inhibition—When applicable, cells were preincubated with 50 nM IGF-1 R inhibitor, picropodophyllin (Calbiochem, Mass.) just prior to the Scratch Assay. […]

[3] = test system: HUVEC cells; test: EF-induced reorientation of endothelial cells (orientation index Oi); assay type: cell-based, human
Protocol: HUVEC cells were seeded in a trough formed by two parallel (1 cm apart) strips of glass coverslip (No. 1, length of 22 mm) fixed to the base of the dish with silicone grease. Scratch lines were made perpendicular to the long axis of the chamber with a fine sterile needle and used as reference marks for directed cell migration. Cells were incubated for 24-48 hours (37° C., 5% CO2) before a roof coverslip was applied and sealed with silicone grease. The final dimensions of the chamber, through which current was passed, were 22×10×0.2 mm. Agar-salt bridges not less than 15 cm long were used to connect silver/silver-chloride electrodes in beakers of Steinberg's solution (58 mM NaCl, 0.67 mM KCl, 0.44 mM Ca(NO3)2, 1.3 mM MgSO4, 4.6 mM Trizma base, pH 7.8-8.0), to pools of excess culture medium at either side of the chamber. Field strengths were measured directly at the beginning of, the end of and during each experiment. […] (50 μM), the Rho kinase inhibitor Y27632 (50 μM), both Akt and Rho kinase inhibitors (10 μM each) or latrunculin (50 nM) for 1 hour before EF stimulation. The same concentration of drug was present during EF exposure in a CO2 incubator.
A series of images was taken with an image analyser immediately before EF exposure and at 4, 8 and 24 hours of EF exposure. Cell orientation was quantified as an orientation index (Oi), which is defined as Oi=cos2(α), where α is the angle formed by the long axis of a cell with a line drawn perpendicular to the field lines. A cell with its long axis parallel to the vector of the EF will have an Oi of −1, and a cell with its long axis exactly perpendicular to the EF vector will have an Oi of +1. […] The significance of this two-dimensional orientation distribution against randomness was calculated using Rayleigh's distribution. A long:short axis ratio was calculated for assessment of elongation.

[4] = inhibitor 50 μM, 1 hour before and during EF

## C[C@@H](N)[C@H]1CC[C@H](C(=O)Nc2ccncc2)CC1 [Y27632]
[1]
  long:short axis ratio in EF-treated cells: significantly decreased the long:short axis ratio

## COc1cc([C@@H]2c3cc4c(cc3[C@H](O)[C@H]3COC(=O)[C@@H]23)OCO4)cc(OC)c1OC [IGF-1 R inhibitor, picropodophyllin]
[2]; 50 nM picropodophyllin just prior to scratch assay
  increased keratinocyte migration observed with LLEC, in presence of IGF-1 R inhibitor: attenuated the increased keratinocyte migration

## catalase
[2]; HaCaT transfected with AdCatalase, 72 h
  increased migration triggered by the LLEC, with over-expression of catalase: attenuated the increased migration

## COc1cc2ncnc(Nc3ccc(Cl)cc3F)c2cc1OC [VEGFR inhibitor, 4-[(4′-chloro-2′-fluoro)phenylamino]-6,7-dimethoxyquinazoline]
[3]; [4]
  orientation response of cells in an EF: completely abolished the reorientation of cells in an EF

## CC(=O)N[C@@H](CS)C(=O)O [N-Acetyl Cysteine, N-acetylcysteine]
[2]; 5 mM, 1 h pretreatment before scratch assay
  increased keratinocyte migration observed with LLEC, in presence of N-acetyl cysteine: failed to reproduce the increased migration

## 1-L-6-hydroxymethyl-chiro-inositol 2-[(R)-2-O-methyl-3-O-octadecylcarbonate] [Akt inhibitor]
[3]; [4]
  orientation response of cells in an EF: significantly decreased the orientation response
[1]
  long:short axis ratio in EF-treated cells: significantly decreased the long:short axis ratio

## C/C1=C/C(=O)O[C@@H]2C[C@@H](CC[C@H](C)/C=C\C=C\CC1)O[C@@](O)([C@@H]1CSC(=O)N1)C2 [Latrunculin A]
[3]; latrunculin 50 nM, P<0.001
  orientation response of cells in an EF: suppressed the orientation response significantly
[1]; latrunculin 50 nM
  EF-induced elongation response: completely abolished the EF-induced elongation response

From patent US11484708B2, “Methods and devices for surgical pre-treatment” (Vomaris Innovations, Inc., priority 2014, dated 2022)
